Measurements as given in the supplement of paper PMC11061612.

What was measured:
CAS-1 (Glioblastoma) [1] = assay: Bliss excess, mean over the matrix (fraction); higher = more synergy
In short: (§1)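 Cell lines in DMEM/F12 or RPMI with 10% FBS were plated in 1536-well plates, held 24 hours at 37°C, 5% CO2, then given two-drug dose matrices for 72 hours (DMSO typically 0.2%). Viability was read by CellTiter-Glo 2.0 luminescence and scaled as inhibition from 0 (vehicle wells) to 1 (blank wells). Combination Emax is the second-highest inhibition in the matrix; Bliss excess is observed combination effect minus expected EA + EB − EA·EB, EA and EB being single-agent effects.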

[2] = tested on: CCK-81 (Colorectal Carcinoma); assay: as above
In short: as §1

[3] = tested on: COLO-824 (Breast Carcinoma); assay: as above
In short: as §1

[4] = tested on: COR-L311 (Small Cell Lung Carcinoma); assay: as above
In short: as §1

[5] = tested on: ECC10 (Gastric Carcinoma); assay: as above
In short: as §1

FU97 (Gastric Carcinoma) = assay: as above
In short: as §1

Hs-445 (Non-Cancerous) = assay: as above
In short: as §1

[6] = tested on: KARPAS-422 (B-Cell Non-Hodgkin's Lymphoma); assay: as above
In short: as §1

[7] = tested on: NCI-H1581 (Non-Small Cell Lung Carcinoma); assay: as above
In short: as §1

[8] = tested on: NCI-H1666 (Lung Adenocarcinoma); assay: as above
In short: as §1

[9] = tested on: NCI-H1693 (Lung Adenocarcinoma); assay: as above
In short: as §1

NY (Osteosarcoma) = assay: as above
In short: as §1

[10] = tested on: ONS-76 (Other Solid Carcinomas); assay: as above
In short: as §1

[11] = tested on: OS-RC-2 (Kidney Carcinoma); assay: as above
In short: as §1

PA-1 (Ovarian Carcinoma) = assay: as above
In short: as §1

[12] = tested on: SISO (Cervical Carcinoma); assay: as above
In short: as §1

U-2-OS (Osteosarcoma) = assay: as above
In short: as §1

CAS-1 (Glioblastoma) [13] = assay: combination Emax (second highest fraction inhibited in the dose matrix, 72 h); higher = more inhibition; extreme values may be limits of the assay
In short: as §1

[14] = tested on: COLO-824 (Breast Carcinoma); assay: as above
In short: as §1

[15] = tested on: NCI-H2141 (Small Cell Lung Carcinoma); assay: as above
In short: as §1
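Throughout, for Bliss excess, mean over the matrix: after 72 h of two-drug dosing.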

Row | Structure (SMILES) | Bliss excess (CAS-1 (Glioblastoma) [1]) | Bliss excess [2] | Bliss excess [3] | Bliss excess [4] | Bliss excess [5] | Bliss excess (FU97 (Gastric Carcinoma)) | Bliss excess (Hs-445 (Non-Cancerous)) | Bliss excess [6] | Bliss excess [7] | Bliss excess [8] | Bliss excess [9] | Bliss excess (NY (Osteosarcoma)) | Bliss excess [10] | Bliss excess [11] | Bliss excess (PA-1 (Ovarian Carcinoma)) | Bliss excess [12] | Bliss excess (U-2-OS (Osteosarcoma)) | combination Emax (CAS-1 (Glioblastoma) [13]) | combination Emax [14] | combination Emax [15]
1 | Cc1c2c(nn1C)CSCc1cc(n(C)n1)CSc1cc(c3ccccc3c1)OCCCc1c(C(=O)O)n(C)c3c-2c(Cl)ccc13 [AZD5991] + CN(C)CCCOc1ccc(-c2ccc3ncc4c(c3c2)n(C2CCOCC2)c(=O)n4C)cn1 [AZD0156] (first compound max 1 µM, 7x7, partner max 1 µM) | 0.0497 | 0.0379 | -0.004 | -0.0088 | -0.0158 | -0.058 | -0.106 | -0.0675 | 0.0383 | 0.0068 | -0.0254 | 0.0299 | -0.0291 | -0.0096 | 0.004 | 0.0222 | 0.0132 | 0.532 | 0.411 | 0.265
2 | Cc1c2c(nn1C)CSCc1cc(n(C)n1)CSc1cc(c3ccccc3c1)OCCCc1c(C(=O)O)n(C)c3c-2c(Cl)ccc13 [AZD5991] + C[C@@H]1COCCN1C2=NC(=NC(=C2)C3(CC3)[S@](=N)(=O)C)C4=C5C=CNC5=NC=C4 [AZD6738] (first compound max 1 µM, 7x7, partner max 10 µM) | 0.109 | 0.0173 | -0.009 | 0.0018 | 0.0683 | -0.0064 | -0.0064 | -0.0209 | -0.0036 | 0.0156 | 0.0316 | 0.0486 | -0.0017 | 0.0211 | 0.0702 | 0.0628 | 0.0276 | 0.877 | 0.868 | 0.628
3 | Cc1c2c(nn1C)CSCc1cc(n(C)n1)CSc1cc(c3ccccc3c1)OCCCc1c(C(=O)O)n(C)c3c-2c(Cl)ccc13 [AZD5991] + C[C@@H](Nc1cc(F)cc(F)c1)c1cc(C(=O)N(C)C)cc2c(=O)cc(N3CCOCC3)oc12 [AZD8186] (first compound max 1 µM, 7x7, partner max 3 µM) | -0.0108 | 0.0103 | 0.0043 | -0.0098 | 0.024 | 0.0594 | -0.0177 | -0.0143 | -0.0068 | -0.0359 | -0.0461 | 0.08 | -0.0517 | -0.0226 | 0.049 | -0.0067 | -0.0073 | 0.467 | 0.441 | 0.3
4 | Cc1c2c(nn1C)CSCc1cc(n(C)n1)CSc1cc(c3ccccc3c1)OCCCc1c(C(=O)O)n(C)c3c-2c(Cl)ccc13 [AZD5991] + Cc1cc2ncnn2cc1Nc1ncc2c(n1)n(C1CCOCC1)c(=O)n2C [AZD7648] (first compound max 1 µM, 7x7, partner max 10 µM) | -0.0723 | -0.0103 | -0.0187 | 0.0101 | -0.0409 | -0.044 | -0.0109 | -0.0008 | -0.0026 | -0.0666 | -0.026 | -0.0319 | -0.0236 | -0.068 | -0.0774 | -0.0221 | -0.0318 | 0.401 | 0.364 | 0.307
5 | Cc1c2c(nn1C)CSCc1cc(n(C)n1)CSc1cc(c3ccccc3c1)OCCCc1c(C(=O)O)n(C)c3c-2c(Cl)ccc13 [AZD5991] + Cn1cnc2c(F)c(Nc3ccc(Br)cc3Cl)c(C(=O)NOCCO)cc21 [Selumetinib] (first compound max 1 µM, 7x7, partner max 3 µM) | -0.0036 | 0.009 | -0.0049 | -0.0212 | 0.0176 | -0.0609 | 0.0106 | -0.0157 | 0.0803 | 0.0499 | 0.0314 | -0.0312 | 0.0319 | -0.0557 | 0.0085 | -0.0134 | 0.0109 | 0.286 | 0.406 | 0.22
6 | C[C@@H]1COCCN1c1cc(C2([S@](C)(=N)=O)CC2)nc(-c2ccnc3[nH]ccc23)n1 [AZD6738] + O=C(c1cc(Cc2n[nH]c(=O)c3ccccc23)ccc1F)N1CCN(C(=O)C2CC2)CC1 [Olaparib] (first compound max 10 µM, 7x7, partner max 10 µM) | 0.0743 | -0.0049 | -0.0314 | -0.0507 | 0.0666 | 0.023 | -0.0067 | -0.0539 | 0.0166 | 0.0073 | -0.0082 | -0.0521 | -0.0284 | -0.0085 | 0.0046 | 0.0221 | 0.0257 | 0.48 | 0.595 | 0.51
7 | Cc1cc2ncnn2cc1Nc1ncc2c(n1)n(C1CCOCC1)c(=O)n2C [AZD7648] + C=CCn1c(=O)c2cnc(Nc3ccc(N4CCN(C)CC4)cc3)nc2n1-c1cccc(C(C)(C)O)n1 [AZD1775] (first compound max 10 µM, partner max 1 µM) | 0.0219 | 0.0285 | -0.0448 | -0.119 | 0.0498 | 0.0004 | -0.0501 | -0.187 | -0.0334 | 0.0305 | 0.0055 | -0.0547 | -0.0046 | -0.0474 | -0.0024 | -0.0005 | 0.0232 | 0.566 | 0.658 | 0.647
8 | Cc1cc2ncnn2cc1Nc1ncc2c(n1)n(C1CCOCC1)c(=O)n2C [AZD7648] + CCN(CCO)CCCOc1ccc2c(Nc3cc(CC(=O)Nc4cccc(F)c4)[nH]n3)ncnc2c1 [AZD2811] (first compound max 10 µM, 7x7, partner max 1 µM) | 0.0895 | 0.0699 | 0.0116 | -0.0806 | -0.047 | -0.0667 | 0.0394 | -0.0417 | 0.0122 | -0.0087 | -0.0059 | 0.0076 | 0.0443 | 0.0201 | 0.0239 | 0.0662 | 0.0294 | 0.427 | 0.762 | 0.358
9 | Cc1cc2ncnn2cc1Nc1ncc2c(n1)n(C1CCOCC1)c(=O)n2C [AZD7648] + CN(C)CCCOc1ccc(-c2ccc3ncc4c(c3c2)n(C2CCOCC2)c(=O)n4C)cn1 [AZD0156] (first compound max 10 µM, 7x7, partner max 1 µM) | -0.0246 | -0.0003 | -0.0145 | -0.054 | 0.0025 | -0.0915 | -0.0388 | -0.138 | 0.0088 | -0.0072 | 0.0173 | -0.0172 | -0.0014 | 0.0028 | -0.0117 | 0.0339 | 0.0103 | 0.314 | 0.283 | 0.229
10 | Cc1cc2ncnn2cc1Nc1ncc2c(n1)n(C1CCOCC1)c(=O)n2C [AZD7648] + C[C@@H]1COCCN1C2=NC(=NC(=C2)C3(CC3)[S@](=N)(=O)C)C4=C5C=CNC5=NC=C4 [AZD6738] (first compound max 10 µM, 7x7, partner max 10 µM) | 0.0024 | 0.0178 | 0.0794 | -0.016 | 0.0582 | -0.0017 | 0.001 | -0.0856 | 0.0217 | 0.0034 | 0.0177 | -0.0052 | -0.0282 | -0.0077 | -0.0509 | 0.0202 | 0.0173 | 0.609 | 0.738 | 0.578
11 | Cc1cc2ncnn2cc1Nc1ncc2c(n1)n(C1CCOCC1)c(=O)n2C [AZD7648] + O=C(c1cc(Cc2n[nH]c(=O)c3ccccc23)ccc1F)N1CCN(C(=O)C2CC2)CC1 [Olaparib] (first compound max 10 µM, 7x7, partner max 10 µM) | -0.0909 | -0.0546 | -0.0115 | -0.126 | -0.0305 | -0.0879 | 0.0006 | -0.0358 | -0.0319 | -0.0471 | -0.0299 | -0.0311 | -0.0419 | -0.0486 | -0.0072 | -0.0226 | -0.0136 | 0.271 | 0.279 | 0.218
12 | NC1(C(=O)N[C@@H](CCO)c2ccc(Cl)cc2)CCN(c2ncnc3[nH]ccc23)CC1 [Capivasertib] + CC(=O)c1c(C)c2cnc(Nc3ccc(N4CCNCC4)cn3)nc2n(C2CCCC2)c1=O [Palbociclib] (first compound max 10 µM, 7x7, partner max 10 µM) | -0.044 | -0.0025 | -0.0495 | -0.0489 | -0.011 | -0.0168 | -0.0616 | -0.012 | 0.0213 | 0.0086 | -0.0631 | -0.0134 | 0.027 | 0.0249 | 0.0288 | 0.0057 | 0.0197 | 0.635 | 0.612 | 0.299
13 | NC1(C(=O)N[C@@H](CCO)c2ccc(Cl)cc2)CCN(c2ncnc3[nH]ccc23)CC1 [Capivasertib] + CC(C)n1c(=O)n(C)c2cnc3cc(F)c(-c4ccc(OCCCN5CCCCC5)nc4)cc3c21 [AZD1390] (first compound max 10 µM, 7x7, partner max 0.3 µM) | -0.0671 | -0.0514 | -0.0137 | -0.0564 | -0.0231 | -0.0099 | -0.0763 | -0.0685 | -0.0784 | -0.0285 | -0.111 | -0.0643 | -0.0894 | -0.0779 | -0.102 | -0.0782 | -0.0453 | 0.543 | 0.464 | 0.249
14 | NC1(C(=O)N[C@@H](CCO)c2ccc(Cl)cc2)CCN(c2ncnc3[nH]ccc23)CC1 [Capivasertib] + CCN(CCO)CCCOc1ccc2c(Nc3cc(CC(=O)Nc4cccc(F)c4)[nH]n3)ncnc2c1 [AZD2811] (first compound max 10 µM, 7x7, partner max 1 µM) | -0.0688 | 0.0065 | -0.0183 | -0.0461 | -0.039 | -0.004 | -0.0895 | -0.0291 | -0.11 | -0.0482 | -0.0446 | -0.0531 | -0.0191 | -0.0136 | 0.0219 | 0.0229 | -0.001 | 0.635 | 0.85 | 0.345
15 | NC1(C(=O)N[C@@H](CCO)c2ccc(Cl)cc2)CCN(c2ncnc3[nH]ccc23)CC1 [Capivasertib] + COc1nnc2ccc(N3CCC(c4ccc(OCCN5CCN(C)C(=O)[C@H]5C)cc4)CC3)nn12 [AZD5153] (first compound max 10 µM, 7x7, partner max 1 µM) | 0.0268 | -0.0176 | 0.0218 | -0.0089 | 0.0708 | -0.0154 | -0.027 | -0.0511 | -0.0303 | -0.0136 | -0.0062 | -0.0649 | 0.0234 | 0.117 | -0.0386 | 0.009 | 0.0156 | 0.735 | 0.776 | 0.377
